Assay results as given in patent publication US9624234B2, “Heterocyclic compounds and methods for their use” (Novartis AG, priority 2012, dated 2017).

Target: AT2 receptor (Homo sapiens (Human), UniProt P50052)
Experiment: AT2 receptor binding ([125I]-CGP42112A radioligand, HEK293/AT2 receptor membranes)
Settings: HEK293/AT2 receptor transient transfected cell membranes, RT 1.5 hrs
Experimental: • 1. Trypsin-EDTA (for preparation of 100 mL) • Trypsin 0.25 g • 2% EDTA 2 mL • PBS 98 mL • Dissolve trypsin in 2% EDTA and PBS completely; sterilize the solution by passing through a […] membrane filter; store at 4° C. • 2. DMEM medium (for preparation of 1 L) • The powder was dissolved into 950 mL of distilled water with gentle stirring until the solution becomes clear. • Add NaHCO3 1.176 g for DMEM medium. • Adjust pH of medium to 0.2-0.3 below final working pH using 1 M NaOH or 1 M HCl. Add slowly with stirring. • Dilute to 1 liter with ddH2O. • Sterilize the medium immediately by filtration. • Store at 4° C. • 3. TE buffer • 20 mM Tris-HCl, pH 7.4, • 5 mM EDTA • 4. Binding Assay Buffer • 50 mM Hepes, pH 7.4 • 5 mM MgCl2 • 1 mM CaCl2 • 0.2% BSA • 5. Wash Buffer • 50 mM Hepes, pH 7.4 Procedures for HEK293/AT2 Receptor Transient Cell Transfection • Cells were plated into 150 mm dish at 50% density for transient transfection. Cells were ready for transfection after overnight incubation (the confluence reaches around 80%). • 75 μL Lipofectamine™2000 diluted in 6.25 mL OptiMEM I Reduced Serum Medium, was mixed gently, and incubated at room temperature for 5 minutes. 50 μg expression plasmid DNA diluted in 6.25 mL OptiMEM I Reduced Serum Medium without serum was mixed gently. • After the 5 minute incubation, the diluted DNA was combined with the diluted Lipofectamine™2000 (total volume is 12.5 mL). The mixture was mixed gently and incubated for 30 minutes at room temperature to allow the DNA-Lipofectamine™2000 complexes to form. • The 12.5 mL DNA-Lipofectamine™2000 complexes were added into the 150 mm dish and mixed gently by rocking the dish back and forth. • The cells were incubated at 37° C. with 5% CO2 for 48 hours. • Cells were collected and stored frozen at −80° C. Procedures for HEK293/AT2 Receptor Cell Membrane Preparation • Frozen HEK293/AT2 receptor (transient transfected) cells were homogenized in ice cold TE buffer for 10 s. • The homogenate was centrifuged at 25,000 g for 30 minutes. • The pellet was resuspended in ice cold tissue buffer. • Protein concentrations were determined using Bradford assay method with BSA as standard. • The membrane protein was frozen under −80° C. Compound Preparation
Solutions of all compounds were prepared by microplate liquid handling equipment such as Janus or Precision 2000. Compounds, dissolved in DMSO were stored in a Freezer. Compounds were prepared from 30 mM in 100% DMSO.
Step 1: Dose Plate Preparation (96 Well Plate)
• Add the 3 μL [30 mM] compound stock to column 1 on the plate. • Add 15 μL of 100% DMSO to column 1. • Add 10.81 μL of 100% DMSO to column 2-12. • Transfer 5 μL from column 1 into column 2 (half log dilution). • Transfer 5 μL from column 2 into column 3 (half log dilution). • Transfer 5 μL from column 3 into column 4 (half log dilution). • Transfer 5 μL from column 4 into column 5 (half log dilution). • Transfer 5 μL from column 5 into column 6 (half log dilution). • Transfer 5 μL from column 6 into column 7 (half log dilution). • Transfer 5 μL from column 7 into column 8 (half log dilution). • Transfer 5 μL from column 8 into column 9 (half log dilution). • Transfer 5 μL from column 9 into column 10 (half log dilution) • Transfer 5 μL from column 10 into column 11 (half log dilution) • Transfer 5 μL from column 11 into column 12 (half log dilution). All the compounds were diluted using Precision 2000 microplate liquid handling equipment. The top concentration of compound was 5 mM with 100% DMSO. Step 2: Working Plate Preparation (96 Well Plate) • Compounds were diluted 50-fold with buffer. • 49 μL buffer was added to the well of 96 well plate. • 1 μL compound solution from dose plate was transferred to the corresponding well of working plate. • The top concentration of compound was 100 μM with 2% DMSO. Step 3: Assay Plate Preparation (96 Well Plate)
15 μL of compound solution was transferred from each well of working plate to the well of assay plate by Janus.

Sequence of AT2 receptor (P50052 whole entry, species assumed): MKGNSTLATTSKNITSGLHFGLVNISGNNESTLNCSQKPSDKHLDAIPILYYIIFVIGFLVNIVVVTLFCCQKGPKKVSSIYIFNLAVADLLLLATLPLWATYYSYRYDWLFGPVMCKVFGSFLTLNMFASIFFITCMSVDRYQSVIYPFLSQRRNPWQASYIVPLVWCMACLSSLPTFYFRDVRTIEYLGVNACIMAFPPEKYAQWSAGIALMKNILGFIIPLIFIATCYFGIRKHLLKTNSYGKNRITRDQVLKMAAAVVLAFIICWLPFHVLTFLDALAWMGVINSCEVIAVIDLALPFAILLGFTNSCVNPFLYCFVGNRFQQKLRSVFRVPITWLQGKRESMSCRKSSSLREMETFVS

SMILES | IC50
O=C(O)[C@@H]1C[C@H](OCC#Cc2ccccc2)CCN1C(=O)C(c1ccccc1)c1ccccc1 [Compound 40, (2S,4R)-1-(2,2-diphenylacetyl)-4-((3-phenylprop-2-yn-yl)oxy)piperidine-2-carboxylic acid] | 228 nM
CN(Cc1ccccc1)[C@H]1CCN(C(=O)C(c2ccccc2)c2ccccc2)[C@H](C(=O)O)C1 [Compound 39, (2S,4S)-4-(benzyl(methyl)amino)-1-(2,2-diphenylacetyl)piperidine-2-carboxylic acid] | 648 nM
O=C(O)[C@@H]1C[C@H](OCCCc2ccccc2)CCN1C(=O)C(c1ccccc1)c1ccccc1 [Compound 41, (2S,4R)-1-(2,2-diphenylacetyl)-4-((3-phenylpropyl)oxy)piperidine-2-carboxylic acid] | 101 nM
O=C(O)[C@@H]1C[C@H](N2CCC[C@@H](c3ccccc3)C2)CCN1C(=O)C(c1ccccc1)c1ccccc1 [Compound 57, (2′S,3S,4′R)-1′-(2,2-diphenylacetyl)-3-phenyl-[1,4′-bipiperidine]-2′-carboxylic acid] | 1440 nM
O=C(O)[C@@H]1C[C@@H](N2CCC[C@H](c3ccccc3)C2)CCN1C(=O)C(c1ccccc1)c1ccccc1 [Compound 56, (2′S,3R,4′R)-1-(2,2-diphenylacetyl)-3-phenyl-[1,4′-bipiperidine]-2′-carboxylic acid] | 111 nM
CC#CCN(C)[C@H]1CCN(C(=O)C(c2ccccc2)c2ccccc2)[C@H](C(=O)O)C1 [Compound 43] | 2050 nM
O=C(O)[C@@H]1Cc2c(ccc3c2Oc2ccccc2O3)CN1C(=O)C(c1ccccc1)c1ccccc1 [Compound 9, (S)-3-(2,2-diphenylacetyl)-1,2,3,4-tetrahydrobenzo[5,6][1,4]dioxino[2,3-f]isoquinoline-2-carboxylic acid] | 159 nM
CN(CCc1ccccc1)[C@@H]1CCN(C(=O)C(c2ccccc2)c2ccccc2)[C@H](C(=O)O)C1 [Compound 34, (2S,4R)-1-(2,2-diphenylacetyl)-4-(methyl(3-phenethyl)amino)piperidine-2-carboxylic acid] | 918 nM
CC#CCN(C)[C@@H]1CCN(C(=O)C(c2ccccc2)c2ccccc2)[C@H](C(=O)O)C1 [Compound 42] | 852 nM
CN(CCc1ccccc1)[C@H]1CCN(C(=O)C(c2ccccc2)c2ccccc2)[C@H](C(=O)O)C1 [Compound 35, (2S,4S)-1-(2,2-diphenylacetyl)-4-(methyl(3-phenethyl)amino)piperidine-2-carboxylic acid] | 101 nM
CN(CC#Cc1ccc(F)cc1)[C@@H]1CCN(C(=O)C(c2ccccc2)c2ccccc2)[C@H](C(=O)O)C1 [Compound 46] | 55.9 nM
CN(CC#Cc1ccccc1)[C@@H]1CCN(C(=O)C(c2ccccc2)c2ccccc2)[C@H](C(=O)O)C1 [Compound 32] | 108 nM
CN(CC#CC(C)(C)C)[C@@H]1CCN(C(=O)C(c2ccccc2)c2ccccc2)[C@H](C(=O)O)C1 [Compound 54, (2S,4R)-4-((4,4-dimethylpent-2-yn-1-yl)(methyl)amino)-1-(2,2-diphenylacetyl)piperidine-2-carboxylic acid] | 33.9 nM
O=C(O)[C@@H]1C[C@H](N2CCC[C@H](c3ccccc3)C2)CCN1C(=O)C(c1ccccc1)c1ccccc1 [Compound 55, (2′S,3R,4′R)-1′-(2,2-diphenylacetyl)-3-phenyl-[1,4′-bipiperidine]-2′-carboxylic acid] | 294 nM
O=C(O)[C@@H]1C[C@@H](N2CCC[C@@H](c3ccccc3)C2)CCN1C(=O)C(c1ccccc1)c1ccccc1 [Compound 58, (2′S,3S,4′S)-1′-(2,2-diphenylacetyl)-3-phenyl-[1,4′-bipiperidine]-2′-carboxylic acid] | 170 nM
O=C(O)[C@@H]1CC(OCc2ccccc2)CCN1C(=O)C(c1ccccc1)c1ccccc1 (stereo partly drawn) [Compound 26, (2S)-4-(benzyloxy)-1-(2,2-diphenylacetyl)piperidine-2-carboxylic acid] | 218 nM
O=C(O)[C@@H]1Cc2c(c3ccccc3n2Cc2ccccc2)CN1C(=O)C(c1ccccc1)c1ccccc1 [Compound 1] | 210 nM
CN(Cc1ccccc1)[C@@H]1CCN(C(=O)C(c2ccccc2)c2ccccc2)[C@H](C(=O)O)C1 [Compound 38, (2S,4R)-4-(benzyl(methyl)amino)-1-(2,2-diphenylacetyl)piperidine-2-carboxylic acid] | 854 nM
CN(CCCc1ccccc1)[C@@H]1CCN(C(=O)C(c2ccccc2)c2ccccc2)[C@H](C(=O)O)C1 [Compound 31, (2S,4R)-1-(2,2-diphenylacetyl)-4-(methyl(phenylpropyl)amino)piperidine-2-carboxylic acid] | 5090 nM
CN(CC#Cc1ccccc1)[C@H]1CCN(C(=O)C(c2ccccc2)c2ccccc2)[C@H](C(=O)O)C1 [Compound 33, (2S,4S)-1-(2,2-diphenylacetyl)-4-(methyl(3-phenylprop-2-yn-1yl)amino)piperidine-2-carboxylic acid] | 2710 nM
CN(CC#Cc1ccc(F)cc1)[C@H]1CCN(C(=O)C(c2ccccc2)c2ccccc2)[C@H](C(=O)O)C1 [Compound 47, (2S,4S)-1-(2,2-diphenylacetyl)-4-((3-(4-fluorophenyl)prop-2-yn-1-yl)(methyl)amino)piperidine-2-carboxylic acid] | 1040 nM
